Results from patent US12077483B2, “Modified amine lipids” (Intellia Therapeutics, Inc., priority 2018, dated 2024).

Test system: mouse TTR
Assay: Serum TTR ELISA in mice after LNP delivery
Type: in vivo
Settings: mouse serum, relative to TSS control of same experiment, dose 0.03 mpk
Protocol: For studies measuring in vivo editing in liver, CD-1 female mice were dosed at 0.1 mpk unless otherwise noted. Animals were euthanized at 6 or 7 days by exsanguinationvia cardiac puncture under isoflourane anesthesia. Liver tissue was collected from each animal for DNA extraction and analysis. Blood was collected into serum separator tubes or into tubes containing buffered sodium citrate for plasma as described herein. Cohorts of mice were measured for editing by Next-Generation Sequencing (NGS).
Blood was collected and the serum was isolated as indicated. The total mouse TTR serum levels were determined using a Mouse Prealbumin (Transthyretin) ELISA Kit (Aviva Systems Biology, Cat. OKIA00111). Briefly, sera were serial diluted with kit sample diluent, e.g. to a final dilution of 10,000-fold and/or 2,500-fold. The diluted sample was then added to the ELISA plates and the assay was then carried out according to directions. Serum TTR data from treatment groups are expressed as a percentage of vehicle control levels.

| SMILES | Serum TTR % TSS |
| --- | --- |
| CCCCC/C=C\C/C=C\CCCCCCCC(=O)OCC(COC(=O)CCCCCCC/C=C\C/C=C\CCCCC)OC(=O)CCC(CCCCCCCCCCCC)OC(=O)OCCN(C)C (centres unmarked) [Compound 4, 2-((4-(((2-(dimethylamino)ethoxy)carbonyl)oxy)hexadecanoyl)oxy)propane-1,3-diyl (9Z,9′Z,12Z,12′Z)-bis(octadeca-9,12-dienoate)] | 73.09 % TSS |

Same assay, conditions: mouse serum, relative to TSS control of same experiment, dose 0.1 mpk

| SMILES | Serum TTR % TSS |
| --- | --- |
| CCCCC/C=C\C/C=C\CCCCCCCC(=O)OCC(COC(=O)CCCCCCC/C=C\C/C=C\CCCCC)COC(=O)CCC(CCCCCCCC)OC(=O)NCCN(C)CC (centres unmarked) [Compound 54, 2-(12-methyl-6-octyl-3,8-dioxo-2,7-dioxa-9,12-diazatetradecyl)propane-1,3-diyl (9Z,9′Z,12Z,12′Z)-bis(octadeca-9,12-dienoate)] | 18.32 % TSS |
| CCCCCCCCCCOC(=O)CCCCCCCC(=O)OCC(COC(=O)CCCCCCCC(=O)OCCCCCCCCCC)OC(=O)CC(CCCCCCCC)OC(=O)NCCN(C)CC (centres unmarked) [Compound 56, 9,9′-didecyl O′1,O1-(2-((3-(((2-(ethyl(methyl)amino)ethyl)carbamoyl)oxy)undecanoyl)oxy)propane-1,3-diyl) di(nonanedioate)] | 69.70 % TSS |

Test system: not listed separately
Assay: pKa of amine lipid by TNS fluorescence
Type: physicochemical
Settings: probe TNS (6-(p-toluidino)-2-naphthalenesulfonic acid sodium salt), unformulated amine lipid in ethanol, sodium phosphate buffers -9.0
Protocol: The pKa of each amine lipid was determined according to the method in Jayaraman, et al. (Angewandte Chemie, 2012) with the following adaptations. The pKa was determined for unformulated amine lipid in ethanol. Lipid stock solutions (2.94 mM) were diluted into Sodium Phosphate Buffers (0.1 M, Boston Bioproducts) of different pH (pH-range: 4.5-9.0) yielding a final lipid concentration of approx. 100 μM. The test samples were supplemented with TNS {6-(p-Toluidino)-2-naphthalenesulfonic acid sodium salt}, incubated and the fluorescence intensity was measured using excitation and emission wavelengths of 321 nm and 448 nm, respectively. The recorded data were normalized and the respective pKa values were derived from sigmoidal fitting.

| SMILES | pKa |
| --- | --- |
| CCCCC/C=C\C/C=C\CCCCCCCC(=O)OCC(COC(=O)CCCCCCC/C=C\C/C=C\CCCCC)OC(=O)CCC(CCCCCCCCCCCC)OC(=O)OCCCN(CC)CC (centres unmarked) [Compound 2, 2-((4-(((3-(diethylamino)propoxy)carbonyl)oxy)hexadecanoyl)oxy)propane-1,3-diyl (9Z,9′Z,12Z,12′Z)-bis(octadeca-9,12-dienoate)] | 5.28 |
| CCCCC/C=C\C/C=C\CCCCCCCC(=O)OCC(COC(=O)CCCCCCC/C=C\C/C=C\CCCCC)OC(=O)CCC(CCCCCCCCCCCC)OC(=O)OCCN(C)C (centres unmarked) [Compound 4, 2-((4-(((2-(dimethylamino)ethoxy)carbonyl)oxy)hexadecanoyl)oxy)propane-1,3-diyl (9Z,9′Z,12Z,12′Z)-bis(octadeca-9,12-dienoate)] | < 5 |
| CCCCC/C=C\C/C=C\CCCCCCCC(=O)OCC(COC(=O)CCCCCCC/C=C\C/C=C\CCCCC)OC(=O)CCC(CCCCCCCCCCCC)OC(=O)NCCCN(CC)CC (centres unmarked) [Compound 13, 2-((4-(((3-(diethylamino)propyl)carbamoyl)oxy)hexadecanoyl)oxy)propane-1,3-diyl (9Z,9′Z,12Z,12′Z)-bis(octadeca-9,12-dienoate)] | 7.2 |
| CCCCC/C=C\C/C=C\CCCCCCCC(=O)OCC(COC(=O)CCCCCCC/C=C\C/C=C\CCCCC)OC(=O)CCC(CCCCCCCC)OC(=O)N(C)CCN(C)CC (centres unmarked) [Compound 37, 2-((4-(((2-(ethyl(methyl)amino)ethyl)(methyl)carbamoyl)oxy)dodecanoyl)oxy) propane-1,3-diyl (9Z,9′Z,12Z,12′Z)-bis(octadeca-9,12-dienoate)] | 5.36 |
| CCCCC/C=C\C/C=C\CCCCCCCC(=O)OCC(COC(=O)CCCCCCC/C=C\C/C=C\CCCCC)OC(=O)CCCOC(=O)NCCN(C)CC [Compound 43, 2-((4-(((2-(ethyl(methyl)amino)ethyl)carbamoyl)oxy)butanoyl)oxy)propane-1,3-diyl (9Z,9′Z,12Z,12′Z)-bis(octadeca-9,12-dienoate)] | 7.33 |
| CCCCC/C=C\C/C=C\CCCCCCCC(=O)OCC(COC(=O)CCCCCCC/C=C\C/C=C\CCCCC)COC(=O)CCC(CCCCCCCC)OC(=O)NCCN(C)CC (centres unmarked) [Compound 54, 2-(12-methyl-6-octyl-3,8-dioxo-2,7-dioxa-9,12-diazatetradecyl)propane-1,3-diyl (9Z,9′Z,12Z,12′Z)-bis(octadeca-9,12-dienoate)] | 6.25 |
| CCCCCCCCCCOC(=O)CCCCCCCC(=O)OCC(COC(=O)CCCCCCCC(=O)OCCCCCCCCCC)OC(=O)CC(CCCCCCCC)OC(=O)NCCN(C)CC (centres unmarked) [Compound 56, 9,9′-didecyl O′1,O1-(2-((3-(((2-(ethyl(methyl)amino)ethyl)carbamoyl)oxy)undecanoyl)oxy)propane-1,3-diyl) di(nonanedioate)] | 6.28 |
| CCCCCCCCCCOC(=O)CCCCCCCC(=O)OCC(COC(=O)CCCCCCCC(=O)OCCCCCCCCCC)OC(=O)CCCC(CCCCCCCC)OC(=O)NCCN(C)CC (centres unmarked) [Compound 58] | 6.32 |
| CCCCC/C=C\C/C=C\CCCCCCCC(=O)OCC(COC(=O)CCCCCCC/C=C\C/C=C\CCCCC)OC(=O)CCC(CCCCC(C)C)OC(=O)NCCN(C)CC (centres unmarked) [Compound 80, 2-((4-(((2-(ethyl(methyl)amino)ethyl)carbamoyl)oxy)-9-methyldecanoyl)oxy)propane-1,3-diyl (9Z,9′Z,12Z,12′Z)-bis(octadeca-9,12-dienoate)] | 6.41 |
| CCCCC/C=C\C/C=C\CCCCCCCC(=O)OCC(COC(=O)CCCCCCC/C=C\C/C=C\CCCCC)OC(=O)CCC(CCCCCC(C)C)OC(=O)NCCN(C)CC (centres unmarked) [Compound 81, 2-((4-(((2-(ethyl(methyl)amino)ethyl)carbamoyl)oxy)-10-methylundecanoyl)oxy)propane-1,3-diyl (9Z,9′Z,12Z,12′Z)-bis(octadeca-9,12-dienoate)] | 6.42 |
| CCCCC/C=C\C/C=C\CCCCCCCC(=O)OCC(COC(=O)CCCCCCC/C=C\C/C=C\CCCCC)OC(=O)CCC(CCCCC(C)C)OC(=O)NCCN1CCCC1 (centres unmarked) [Compound 82, 2-((9-methyl-4-(((2-(pyrrolidin-1-yl)ethyl)carbamoyl)oxy)decanoyl)oxy)propane-1,3-diyl (9Z,9′Z,12Z,12′Z)-bis(octadeca-9,12-dienoate)] | 6.71 |
| CCCCC/C=C\C/C=C\CCCCCCCC(=O)OCC(COC(=O)CCCCCCC/C=C\C/C=C\CCCCC)OC(=O)CCC(CCCCCC(C)C)OC(=O)NCCN1CCCC1 (centres unmarked) [Compound 83, 2-((10-methyl-4-(((2-(pyrrolidin-1-yl)ethyl)carbamoyl)oxy)undecanoyl)oxy)propane-1,3-diyl (9Z,9′Z,12Z,12′Z)-bis(octadeca-9,12-dienoate)] | 6.61 |
| CCCCC/C=C\C/C=C\CCCCCCCC(=O)OCC(COC(=O)CCCCCCC/C=C\C/C=C\CCCCC)OC(=O)CCC(CCCCCC)OC(=O)OCCCN1CCC1 (centres unmarked) [Compound 101, 2-((4-(((3-(azetidin-1-yl)propoxy)carbonyl)oxy)decanoyl)oxy)propane-1,3-diyl (9Z,9′Z,12Z,12′Z)-bis(octadeca-9,12-dienoate)] | 6.75 |
| CCCCC/C=C\C/C=C\CCCCCCCC(=O)OCC(COC(=O)CCCCCCC/C=C\C/C=C\CCCCC)OC(=O)CCC(CCCCCC)OC(=O)OCCCN1CCCCC1 (centres unmarked) [Compound 102, 2-((4-(((3-(piperidin-1-yl)propoxy)carbonyl)oxy)decanoyl)oxy)propane-1,3-diyl (9Z,9′Z,12Z,12′Z)-bis(octadeca-9,12-dienoate)] | 5.16 |
| CCCCC/C=C\C/C=C\CCCCCCCC(=O)OCC(COC(=O)CCCCCCC/C=C\CCCCCCCC)OC(=O)CCC(CCCC)OC(=O)NCCN1CCCC1 (centres unmarked) [Compound 109, 3-(oleoyloxy)-2-((4-(((2-(pyrrolidin-1-yl)ethyl)carbamoyl)oxy)octanoyl)oxy)propyl (9Z,12Z)-octadeca-9,12-dienoate] | 6.91 |
| CCCCCCCC/C=C\CCCCCCCC(=O)OCC(COC(=O)CCCCCCC/C=C\CCCCCCCC)OC(=O)CCC(CCCC)OC(=O)NCCN1CCCC1 (centres unmarked) [Compound 110, 2-((4-(((2-(pyrrolidin-1-yl)ethyl)carbamoyl)oxy)octanoyl)oxy)propane-1,3-diyl dioleate] | 7.01 |
| CCCCC/C=C\C/C=C\CCCCCCCC(=O)OCC(COC(=O)CCC(CCCC)OC(=O)NCCN1CCCC1)OC(=O)CCCCCCC/C=C\C/C=C\CCCCC (centres unmarked) [Compound 111, 3-((4-(((2-(pyrrolidin-1-yl)ethyl)carbamoyl)oxy)octanoyl)oxy)propane-1,2-diyl (9Z,9′Z,12Z,12′Z)-bis(octadeca-9,12-dienoate)] | 7.02 |
| CCCCC/C=C\C/C=C\CCCCCCCC(=O)OCC(COC(=O)CCCCCCC/C=C\C/C=C\CCCCC)COC(=O)CCC(CCCC)OC(=O)NCCN1CCCC1 (centres unmarked) [Compound 112, 2-(((4-(((2-(pyrrolidin-1l-yl)ethyl)carbamoyl)oxy)octanoyl)oxy)methyl)propane-1,3-diyl (9Z,9′Z,12Z,12′Z)-bis(octadeca-9,12-dienoate)] | 7.02 |
| CCCCC/C=C\C/C=C\CCCCCCCC(=O)OCC(COC(=O)CCCCCCC/C=C\C/C=C\CCCCC)COC(=O)CC(CCCC)OC(=O)NCCN1CCCC1 (centres unmarked) [Compound 113, 2-(((3-(((2-(pyrrolidin-1-yl)ethyl)carbamoyl)oxy)heptanoyl)oxy)methyl)propane-1,3-diyl (9Z,9′Z,12Z,12′Z)-bis(octadeca-9,12-dienoate)] | 7.02 |
| CCCCC/C=C\C/C=C\CCCCCCCC(=O)OCC(COC(=O)CCCCCCC/C=C\C/C=C\CCCCC)OC(=O)CCC(CCCCCCCCCCCC)OC(=O)OC1CCN(C)CC1 (centres unmarked) [f47] | 5.99 |
